From patent publication US9951064B2, “Azaindazole compounds as inhibitors of T790M containing EGFR mutants” (Genentech, Inc., priority 2013, dated 2018)

Tests used:
EGFR del746-750 T790M = biological target: T1, EGFR del746-750 T790M (Homo sapiens, UniProt P00533, DEL746-750/T790M); experiment: EGFR del746-750 T790M biochemical assay (Caliper mobility shift); conditions: 5 μM ATP; apparent Ki (Morrison fit) converted by Cheng-Prusoff, Km of ATP 2.1 μM; read-out: EGFR(T790M/d746-750) Ki
T1 construct: purchased Carna Biosciences 08-528
Method in brief: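 Caliper mobility-shift read-out, with product electrophoretically resolved from substrate and measured. Reactions were quenched with 80 mM EDTA after 30 min at 22 °C.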

[1] = tested on: H1975 (EGFR T790M/L858R) cell proliferation; experiment: H1975 proliferation assay (Cell Titer-Glo); type: cell-based; conditions: Homo sapiens, NCI-H1975, 72 h, NCI-H1975 cells, 72 hour incubation, read-out: H1975 antiproliferative EC50
Method: H1975 Proliferation Assays
All cell culture reagents were purchased from Invitrogen/Gibco. Cells are cultured at 37° C. at 5% CO2 and split as recommended by ATCC.

EGFR T790M L858R = biological target: T2, EGFR T790M L858R (Homo sapiens, UniProt P00533, L858R/T790M); experiment: EGFR T790M L858R biochemical assay (Caliper mobility shift); conditions: 5 μM ATP; apparent Ki (Morrison fit) converted by Cheng-Prusoff, Km of ATP 1.3 μM
T2 construct: purchased Life Technologies PV4879
Method in brief: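 Caliper mobility-shift read-out, electrophoretic separation of substrate from product, after a 30-minute kinase reaction at 22 °C. EDTA at 80 mM terminates each reaction.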

[2] = biological target: T3, phosphor-EGFR in H1975(L585R/T790M) mutant EGFR expressing cells (Homo sapiens, UniProt P00533, L858R/T790M); experiment: H1975 pEGFR MSD cellular assay; type: cell-based; conditions: NCI-H1975 cells, serum starved, 1 hour compound incubation, pEGFR Tyr1068 MSD; read-out: HI975 pEGFR EC50
T3 construct: host or cells: NCI-H1975
Method in brief: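 Phospho-EGFR read by MSD electrochemiluminescence: capture with anti-pEGFR antibody (overnight, 4° C), detection with SULFO-TAG anti-total EGFR (1 hour, room temperature). Before lysis, H1975 cells starved of serum overnight got compound for 1 hour at 37° C, 0.5% DMSO final. EC50 via four-parameter logistic regression of percent inhibition.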

T1 sequence (P00533 with tags, fused parts or gaps DEL746-750/T790M limits assumed): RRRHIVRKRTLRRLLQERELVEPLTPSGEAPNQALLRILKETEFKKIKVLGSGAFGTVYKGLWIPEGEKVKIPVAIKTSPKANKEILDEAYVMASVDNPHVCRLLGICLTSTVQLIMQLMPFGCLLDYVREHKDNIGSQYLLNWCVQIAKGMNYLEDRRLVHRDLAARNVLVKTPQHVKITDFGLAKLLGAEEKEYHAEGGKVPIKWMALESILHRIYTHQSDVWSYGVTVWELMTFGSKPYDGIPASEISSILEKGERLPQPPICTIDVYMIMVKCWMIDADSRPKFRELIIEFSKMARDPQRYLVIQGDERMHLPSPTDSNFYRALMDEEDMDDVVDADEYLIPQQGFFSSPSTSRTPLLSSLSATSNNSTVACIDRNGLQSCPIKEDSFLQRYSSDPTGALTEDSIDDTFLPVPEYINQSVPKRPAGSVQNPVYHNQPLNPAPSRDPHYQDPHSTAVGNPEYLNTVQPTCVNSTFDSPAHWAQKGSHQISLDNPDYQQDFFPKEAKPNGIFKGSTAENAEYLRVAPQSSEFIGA
T3 sequence (P00533 25-1210 T790M/L858R): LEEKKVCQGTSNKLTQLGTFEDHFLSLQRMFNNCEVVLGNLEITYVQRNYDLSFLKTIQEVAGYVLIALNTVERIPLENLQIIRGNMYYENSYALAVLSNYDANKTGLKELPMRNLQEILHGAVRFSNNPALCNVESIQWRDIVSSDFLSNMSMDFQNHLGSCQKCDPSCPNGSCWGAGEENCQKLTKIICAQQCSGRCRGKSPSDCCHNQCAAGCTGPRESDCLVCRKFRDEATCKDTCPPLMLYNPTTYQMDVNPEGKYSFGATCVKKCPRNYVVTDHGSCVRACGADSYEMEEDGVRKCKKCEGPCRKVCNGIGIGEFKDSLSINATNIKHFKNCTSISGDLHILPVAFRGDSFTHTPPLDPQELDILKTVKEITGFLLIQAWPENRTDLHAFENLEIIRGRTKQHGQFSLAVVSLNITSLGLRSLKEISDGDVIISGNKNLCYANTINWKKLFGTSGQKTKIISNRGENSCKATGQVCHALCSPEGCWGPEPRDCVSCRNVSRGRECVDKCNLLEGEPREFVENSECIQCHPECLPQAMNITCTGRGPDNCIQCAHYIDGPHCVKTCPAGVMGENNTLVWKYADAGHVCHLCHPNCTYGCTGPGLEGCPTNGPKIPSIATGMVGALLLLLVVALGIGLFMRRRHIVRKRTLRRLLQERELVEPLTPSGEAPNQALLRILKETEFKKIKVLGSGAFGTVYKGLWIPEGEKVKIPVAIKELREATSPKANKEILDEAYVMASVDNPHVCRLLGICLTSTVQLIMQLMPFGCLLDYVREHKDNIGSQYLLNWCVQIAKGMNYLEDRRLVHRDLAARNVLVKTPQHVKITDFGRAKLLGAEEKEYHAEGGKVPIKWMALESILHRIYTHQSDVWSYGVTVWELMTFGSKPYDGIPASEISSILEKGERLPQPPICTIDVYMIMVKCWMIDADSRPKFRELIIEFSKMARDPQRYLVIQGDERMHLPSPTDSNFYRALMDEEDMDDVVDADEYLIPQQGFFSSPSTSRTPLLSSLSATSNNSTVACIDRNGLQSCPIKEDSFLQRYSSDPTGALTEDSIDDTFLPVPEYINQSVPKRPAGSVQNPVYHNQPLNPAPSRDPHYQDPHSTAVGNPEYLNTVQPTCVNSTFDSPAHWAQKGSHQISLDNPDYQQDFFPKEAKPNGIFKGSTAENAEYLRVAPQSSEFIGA
T2 sequence (P00533 25-1210 T790M/L858R): as above

Ki (EGFR del746-750 T790M) [nM] | EC50 [1] [nM] | Ki (EGFR T790M L858R) [nM] | EC50 [2] [nM] | SMILES
9 | 831 | 2.7 | 287 | CC(C)n1nc(N2CC[C@@H](O)C2)c2cnc(Nc3ccnc(N4CCC(C)(O)CC4)n3)cc21 [Example 205, (R)-1-(4-((3-(3-Hydroxypyrrolidin-1-yl)-1-isopropyl-1H-pyrazolo[4,3-c]pyridin-6-yl)amino)pyrimidin-2-yl)-4-methylpiperidin-4-ol]
4.9 | 1600 | 2.5 | 277 | CCC(C)n1nc(N2CC(F)(F)C2)c2cnc(Nc3ccnc(N4CCC(C)(O)CC4)n3)cc21 (centres unmarked) [Example 146, 1-(4-(1-sec-Butyl-3-(3,3-difluoroazetidin-1-yl)-1H-pyrazolo[4,3-c]pyridin-6-ylamino)pyrimidin-2-yl)-4-methylpiperidin-4-ol]
1.5 | 1640 | 2 | 386 | CC(C)n1nc(NC2CCS(=O)(=O)C2)c2cnc(Nc3ccnc(-c4cnn(S(=O)(=O)C5CC5)c4)n3)cc21 (centres unmarked) [Example 107, 3-((6-((2-(1-(Cyclopropylsulfonyl)-1H-pyrazol-4-yl)pyrimidin-4-yl)amino)-1-isopropyl-1H-pyrazolo[4,3-c]pyridin-3-yl)amino)tetrahydrothiophene 1,1-dioxide]
3.1 | 1210 | 3.3 | 124 | CC(C)n1nc(N2CC3CCC(C2)O3)c2cnc(Nc3ccnc(-c4cnn(S(=O)(=O)C5CC5)c4)n3)cc21 [Example 73, 3-(8-Oxa-3-azabicyclo[3.2.1]octan-3-yl)-N-(2-(1-(cyclopropylsulfonyl)-1H-pyrazol-4-yl)pyrimidin-4-yl)-1-isopropyl-1H-pyrazolo[4,3-c]pyridin-6-amine]
9.7 | 3090 | 5.1 | 962 | CC(C)n1nc(N2CC3(C2)CS(=O)(=O)C3)c2cnc(Nc3ccnc(N4CCC(C)(O)CC4)n3)cc21 [Example 160, 6-(6-((2-(4-Hydroxy-4-methylpiperidin-1-yl)pyrimidin-4-yl)amino)-1-isopropyl-1H-pyrazolo[4,3-c]pyridin-3-yl)-2-thia-6-azaspiro[3.3]heptane 2,2-dioxide]
0.9 | 1790 | 1.1 | 221 | CC(C)n1nc(N2CCC3(CNC(=O)C3)C2)c2cnc(Nc3ccnc(-c4cnn(S(=O)(=O)C5CC5)c4)n3)cc21 (centres unmarked) [Example 115, 7-(6-((2-(1-(Cyclopropylsulfonyl)-1H-pyrazol-4-yl)pyrimidin-4-yl)amino)-1-isopropyl-1H-pyrazolo[4,3-c]pyridin-3-yl)-2,7-diazaspiro[4.4]nonan-3-one]
2.6 | 766 | 1.4 | 97.8 | CC(C)n1nc(N2CC3(CC(O)C3)C2)c2cnc(Nc3ccnc(N4CC[C@H](O)[C@H](F)C4)n3)cc21 (racemic) [Example 175, (±)-2-(6-((2-((cis)-3-Fluoro-4-hydroxypiperidin-1-yl)pyrimidin-4-yl)amino)-1-isopropyl-1H-pyrazolo[4,3-c]pyridin-3-yl)-2-azaspiro[3.3]heptan-6-ol]
2.1 | 619 | 1.5 | 77 | CCC(C)n1nc(N2CC[C@@H](O)C2)c2cnc(Nc3ccnc(N4CCC(C)(O)CC4)n3)cc21 (stereo partly drawn) [Example 203, 1-(4-((1-(sec-Butyl)-3-((R)-3-hydroxypyrrolidin-1-yl)-1H-pyrazolo[4,3-c]pyridin-6-yl)amino)pyrimidin-2-yl)-4-methylpiperidin-4-ol]
13.2 | 785 | 4.7 | 256 | CC[C@H](C)n1nc(N2CC3(COC3)C2)c2cnc(Nc3ccnc(OCC(C)(C)S(C)(=O)=O)n3)cc21 [Example 71, [1-((S)-sec-Butyl)-3-(2-oxa-6-azaspiro[3.3]hept-6-yl)-1H-pyrazolo[4,3-c]pyridin-6-yl]-[2-(2-methanesulfonyl-2-methylpropoxy)pyrimidin-4-yl]amine]
6.3 | 2720 | 2.7 | 349 | CC(C)n1nc(N2CC(O)(C(F)(F)F)C2)c2cnc(Nc3ccnc(N4CC[C@H](O)[C@H](F)C4)n3)cc21 (racemic) [Example 129, (±)-cis-3-Fluoro-1-(4-(3-(3-hydroxy-3-(trifluoromethyl)azetidin-1-yl)-1-isopropyl-1H-pyrazolo[4,3-c]pyridin-6-ylamino)pyrimidin-2-yl)piperidin-4-ol]
0.5 | 167 | 0.7 | 33.5 | CC(C)n1nc(NC2COC2)c2cnc(Nc3ccnc(-c4cnn(S(=O)(=O)C5CC5)c4)n3)cc21 [Example 35, N^6-(2-(1-(cyclopropylsulfonyl)-1H-pyrazol-4-yl)pyrimidin-4-yl)-1-isopropyl-N^3-(oxetan-3-yl)-1H-pyrazolo[4,3-c]pyridine-3,6-diamine]
2.9 | 521 | 1.7 | 67.9 | CC[C@H](C)n1nc(N2CC[C@@H](O)C2)c2cnc(Nc3ccnc(N4CC[C@](C)(O)[C@H](F)C4)n3)cc21 (relative stereo) [Example 69, (3R*,4S*)-1-{4-[1-((S)-sec-Butyl)-3-((R)-3-hydroxypyrrolidin-1-yl)-1H-pyrazolo[4,3-c]pyridin-6-ylamino]pyrimidin-2-yl}-3-fluoro-4-methylpiperidin-4-ol]
3.9 | 227 | 2.4 | 15.8 | CCC(C)n1nc(N2CC3(COC3)C2)c2cnc(Nc3ccnc(N4C[C@@H](F)[C@@H](O)C(C)(C)C4)n3)cc21 (mixture of isomers) [Example 147, (4SR,5RS)-1-(4-((1-(sec-Butyl)-3-(2-oxa-6-azaspiro[3.3]heptan-6-yl)-1H-pyrazolo[4,3-c]pyridin-6-yl)amino)pyrimidin-2-yl)-5-fluoro-3,3-dimethylpiperidin-4-ol]
1.1 | 432 | 1.3 | 54.9 | CC(C)n1nc(N2CC(N3CCOCC3)C2)c2cnc(Nc3ccnc(-c4cnn(S(=O)(=O)C5CC5)c4)n3)cc21 [Example 117, N-(2-(1-(Cyclopropylsulfonyl)-1H-pyrazol-4-yl)pyrimidin-4-yl)-1-isopropyl-3-(3-morpholinoazetidin-1-yl)-1H-pyrazolo[4,3-c]pyridin-6-amine]
32.4 | 1710 | 7.5 | 349 | Cc1cn[nH]c1-c1nn(C(C)C)c2cc(Nc3ccnc(N4CCC(O)C(C)(C)C4)n3)ncc12 (centres unmarked) [Example 10, 1-(4-((1-Isopropyl-3-(4-methyl-1H-pyrazol-5-yl)-1H-pyrazolo[4,3-c]pyridin-6-yl)amino)pyrimidin-2-yl)-3,3-dimethylpiperidin-4-ol]
76.7 | 8270 | 34.7 | 1650 | CC(C)n1nc(NC(C)(C)C#N)c2cnc(Nc3ccnc(N4CC[C@H](O)[C@H](F)C4)n3)cc21 (racemic) [Example 183, (±)-2-(6-(2-(cis-3-Fluoro-4-hydroxypiperidin-1-yl)pyrimidin-4-ylamino)-1-isopropyl-1H-pyrazolo[4,3-c]pyridin-3-ylamino)-2-methylpropanenitrile]
4.3 | 489 | 1.8 | 187 | CC(C)n1nc(N2CC(C)(C)NC2=O)c2cnc(Nc3ccnc(N4CCC(O)C(F)C4)n3)cc21 (racemic) [Example 88, (±)-1-(6-(2-(cis-3-Fluoro-4-hydroxypiperidin-1-yl)pyrimidin-4-ylamino)-1-isopropyl-1H-pyrazolo[4,3-c]pyridin-3-yl)-4,4-dimethylimidazolidin-2-one]
0.5 | 271 | < 0.6 | 18.5 | CC(C)n1nc(N2CC(CO)C2)c2cnc(Nc3ccnc(-c4cnn(S(=O)(=O)C5CC5)c4)n3)cc21 [Example 63, (1-(6-(2-(1-(cyclopropylsulfonyl)-1H-pyrazol-4-yl)pyrimidin-4-ylamino)-1-isopropyl-1H-pyrazolo[4,3-c]pyridin-3-yl)azetidin-3-yl)methanol]
0.9 | 144 | 1 | 28.9 | CC(C)n1nc(N2CC(C#N)C2)c2cnc(Nc3ccnc(-c4cnn(S(=O)(=O)C5CC5)c4)n3)cc21 [Example 155, 1-(6-(2-(1-(Cyclopropylsulfonyl)-1H-pyrazol-4-yl)pyrimidin-4-ylamino)-1-isopropyl-1H-pyrazolo[4,3-c]pyridin-3-yl)azetidine-3-carbonitrile]
3.3 | 1430 | 1.8 | 261 | CC(C)n1nc(N2CC(F)(CO)C2)c2cnc(Nc3ccnc(N4CC[C@H](O)[C@H](F)C4)n3)cc21 (racemic) [Example 130, (±)-cis-3-Fluoro-1-(4-(3-(3-fluoro-3-(hydroxymethyl)azetidin-1-yl)-1-isopropyl-1H-pyrazolo[4,3-c]pyridin-6-ylamino)pyrimidin-2-yl)piperidin-4-ol]
